The values that follow are results of earlier work, collected in patent US9856304B2, “Peptide and application thereof” (Saitama Medical University, priority 2013, dated 2018).

The test system of the series is pancreatic β cells. To be noted: as described in Patent Document 1; cited from earlier work.
With “B: 19 amino acid fragment of human TM4SF20, Position 78 to 96, from Patent Document 1 (CNNRTGMFLSSLFSVITVI; listed as Homo sapiens)”, the “activity for promoting increase in pancreatic β cells” value (from here on “activity for promoting increase”) was “not as high as expected”. Take “C: 19 amino acid fragment of human TM4SF20, Position 161 to 179, from Patent Document 1 (TSNDTMASGWRASSFHFDS; listed as Homo sapiens)”: the “activity for promoting increase” value was “not as high as expected”.

For “Peptide A: 19 amino acid fragment of human TM4SF20, Position 98 to 116, from Patent Document 1 (ALYCMLISIQALLKGPLMC; listed as Homo sapiens)”, the “activity for promoting increase” value was “not as high as expected”.
